Data from US5096909A, “Fucosidase inhibitor” (Monsanto Company, priority 1990, dated 1992).

Key:
pKa (Table 1) = type: physicochemical
[1] = test system: human immunodeficiency virus; conditions: cited from earlier work
α-glucosidase = conditions: cited from earlier work
digestive α-glucosidase = conditions: cited from earlier work
[2] = test system: N-acetyl-β-D-hexosaminidase; experiment: Specificity: inhibition of other glycosidases in human liver extract at 1 mM, N-acetyl-β-D-hexosaminidase; type: biochemical; conditions: 4-umbelliferyl glycoside substrate 0.5 mM, optimal pH
Experimental: Tissue Post-mortem human liver, which had been stored at -20° C. until required was homogenized in deionized water (50%, w/v) in a Potter-Elvehjem homogenizer and then centrifuged at 37,000 g for 30 min in an MSE 18 centrifuge. The resultant supernatant was used as the source of human glycosidases. A lyophilized extract of liver from Charonia lampas was obtained from Seikagaku Kogyo Co., Japan for the isolation of α-L-fucosidase by the published procedure of Iijima and Egami, J. Biochem. 70, 75-78 (1971).
Enzyme Assays The glycosidase activities in an extract of human liver were assayed by using the appropriate fluorigenic 4-umbelliferyl glycoside substrate (Koch-Light, Haverhill, Suffolk, U.K.) with a concentration of 0.5 mM at the optimal pH for each enzyme [Burditt et al., Biochem. J. 189, 467-473 (1980)]. The specificity of the inhibitors was determined by assaying the glycosidases in the presence of and absence of a 1 mM solution of each compound. The nature of the inhibition of human α-L-fucosidase, the value of Ki determined by using the Dixon graphical procedure and the effect of pH on the inhibition were investigated as described previously by Al Daher et al., Biochem. J. 258, 613-615 (1989). […]

[3] = test system: mammalian α-L-fucosidases; conditions: cited from earlier work

C[C@H]1N[C@@H](CO)[C@@H](O)[C@H](O)[C@@H]1O [(6), 2,6-Imino-2,6,7-trideoxy-D-glycero-D-gluco-heptitol]
pKa (pKa (Table 1)): 7.7

OC[C@H]1NC[C@H](O)[C@@H](O)[C@@H]1O [deoxynojirimycin (1), deoxynojirimycin]
inhibition of human immunodeficiency virus synctium formation ([1]; syncytium formation): inhibit human immunodeficiency virus synctium formation
inhibition of human immunodeficiency virus replication ([1]; virus replication): inhibit human immunodeficiency virus synctium formation and virus replication
α-glucosidase inhibition (α-glucosidase): α-glucosidase inhibitor

OC[C@H]1N[C@H](CO)[C@@H](O)[C@H](O)[C@H]1O [α-Homonojirimycin]
inhibition of digestive α-glucosidase activity (digestive α-glucosidase): potent inhibitor of digestive α-glucosidase activity

C[C@@H]1NC[C@@H](O)[C@H](O)[C@@H]1O [DFJ, 1,5-Dideoxy-1,5-imino-L-fucitol]
pKa (pKa (Table 1)): 8.4
Other specificities (% inhibition at 1 mM): N-acetyl-β-D-hexosaminidase [2]: 59%
inhibition of a number of mammalian α-L-fucosidases [3]: very powerful and highly specific inhibitor of a number of mammalian α-L-fucosidases
